Laboratory results reported in US20260365671A1, “HETEROCYCLIC COMPOUND” (Takeda Pharmaceutical Company Limited, priority 2022, published 2026).

Columns and labels:
NLRP3 inflammasome = target: T1, NLRP3 inflammasome (Homo sapiens, UniProt Q96P20); test: IL-1β TR-FRET assay (THP-1 cells differentiated to macrophages with IFN-γ, LPS primed, ATP activated; HTRF); format: cell-based; details: THP-1 macrophages, 50 ng/mL LPS priming, compound 30 min, 20 mM ATP 2 hours
T1 construct: IL-1beta HTRF
In short: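 IL-1β release was read by HTRF after 16–24 h antibody incubation at room temperature, using supernatants from THP-1-derived macrophages (IFN-γ 25 ng/mL, LPS 50 ng/mL priming) given compound 30 min and then 20 mM ATP for 2 h. % inhibition versus concentration was fitted logistically for IC50.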

NF-κB pathway = test: TNF-α assay (THP-1 cells differentiated to macrophages with IFN-γ, NF-κB pathway activated with LPS; ELISA); format: cell-based, Human; details: compound 30 min, 50 ng/mL LPS 3 hours
In short: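 TNF-α release measured by ELISA after 3 h stimulation with 50 ng/mL LPS, following 30 min compound pretreatment (37 °C, no FBS). Cells were THP-1 macrophages primed with IFN-γ 25 ng/mL for 24 h. IC50 derived by logistic curve fit.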

[1] = Homo sapiens, THP-1, THP-1 macrophages

T1 sequence (Q96P20 whole entry): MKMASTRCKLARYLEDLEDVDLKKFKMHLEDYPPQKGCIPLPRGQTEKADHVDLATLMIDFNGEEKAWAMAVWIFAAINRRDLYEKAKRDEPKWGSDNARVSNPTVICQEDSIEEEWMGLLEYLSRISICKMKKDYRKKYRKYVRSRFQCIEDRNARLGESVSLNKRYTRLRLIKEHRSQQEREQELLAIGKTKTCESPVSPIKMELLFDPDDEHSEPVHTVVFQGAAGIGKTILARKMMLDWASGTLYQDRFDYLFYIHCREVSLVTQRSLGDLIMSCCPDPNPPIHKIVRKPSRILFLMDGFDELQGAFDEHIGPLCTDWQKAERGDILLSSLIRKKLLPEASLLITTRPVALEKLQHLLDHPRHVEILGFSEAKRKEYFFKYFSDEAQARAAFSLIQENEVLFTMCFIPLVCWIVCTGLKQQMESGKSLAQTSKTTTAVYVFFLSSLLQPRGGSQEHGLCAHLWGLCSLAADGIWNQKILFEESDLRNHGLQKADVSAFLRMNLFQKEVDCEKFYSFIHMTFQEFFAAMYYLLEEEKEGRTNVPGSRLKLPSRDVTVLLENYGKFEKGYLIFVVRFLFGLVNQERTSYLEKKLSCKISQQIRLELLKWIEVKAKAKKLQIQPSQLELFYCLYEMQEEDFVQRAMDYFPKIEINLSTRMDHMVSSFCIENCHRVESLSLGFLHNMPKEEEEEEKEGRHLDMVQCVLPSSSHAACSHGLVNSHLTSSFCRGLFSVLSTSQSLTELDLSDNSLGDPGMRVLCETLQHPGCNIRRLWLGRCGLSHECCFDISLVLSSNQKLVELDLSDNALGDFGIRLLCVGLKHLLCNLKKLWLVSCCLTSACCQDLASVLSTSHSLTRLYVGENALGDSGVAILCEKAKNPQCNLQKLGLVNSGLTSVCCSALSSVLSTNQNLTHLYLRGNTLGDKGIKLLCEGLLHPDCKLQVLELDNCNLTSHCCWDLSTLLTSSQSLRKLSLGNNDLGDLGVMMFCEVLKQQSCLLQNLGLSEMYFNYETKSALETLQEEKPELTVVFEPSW

Compound	IC50 (NLRP3 inflammasome) [µM]	IC50 (NF-κB pathway; [1]) [µM]	IC50 (NF-κB pathway; THP-1 macrophages) [µM]
COCCN(c1nc2nn(-c3c(C)cc(C)cc3O)cc2s1)[C@@H]1CCCNC1 [Example 37, 2-(5-{(2-methoxyethyl)[(3R)-piperidin-3-yl]amino}-2H-pyrazolo[3,4-d][1,3]thiazol-2-yl)-3,5-dimethylphenol]	0.12	> 30	
CC(=O)NCCNc1nc2nn(-c3c(C)cc(C)cc3O)cc2s1 [Example 38, N-(2-{[2-(2-hydroxy-4,6-dimethylphenyl)-2H-pyrazolo[3,4-d][1,3]thiazol-5-yl]amino}ethyl)acetamide]	0.44	> 30	
CC(=O)NCCCCNc1nc2nn(-c3c(C)cc(C)cc3O)cc2s1 [Example 39]	0.39	> 30	
CO[C@H]1CN(C)C[C@@H]1Nc1nc2nn(-c3c(C)cc(C)cc3O)cc2s1 [Example 40, 2-(5-{[(3S,4S)-4-methoxy-1-methylpyrrolidin-3-yl]amino}-2H-pyrazolo[3,4-d][1,3]thiazol-2-yl)-3,5-dimethylphenol]	1.8	> 30	
Cc1cc(C)c(-n2cc3sc(N[C@@H]4C[C@@H](C(F)F)CN(C)C4)nc3n2)c(O)c1 [Example 41, 2-(5-{[(3R,5R)-5-(difluoromethyl)-1-methylpiperidin-3-yl]amino}-2H-pyrazolo[3,4-d][1,3]thiazol-2-yl)-3,5-dimethylphenol]	1.5	> 10	
Cc1cc(C)c(-n2cc3sc(N[C@@H]4CCCN(CCF)C4)nc3n2)c(O)c1 [Example 42, 2-(5-{[(3R)-1-(2-fluoroethyl)piperidin-3-yl]amino}-2H-pyrazolo[3,4-d][1,3]thiazol-2-yl)-3,5-dimethylphenol]	0.014	> 30	
COc1cc(C)c(-n2cc3sc(N[C@@H]4C[C@@H](F)CN(C)C4)nc3n2)c(O)c1 [Example 43, 2-(5-{[(3R,5R)-5-fluoro-1-methylpiperidin-3-yl]amino}-2H-pyrazolo[3,4-d][1,3]thiazol-2-yl)-5-methoxy-3-methylphenol]	0.028	> 30	
Cc1cc(C)c(-n2cc3sc(N[C@@H]4CC[C@@H](O)C4)nc3n2)c(O)c1 [Example 44, 2-(5-{[(1R,3R)-3-hydroxycyclopentyl]amino}-2H-pyrazolo[3,4-d][1,3]thiazol-2-yl)-3,5-dimethyphenol or 2-(5-{[(1S,3S)-3-hydroxycyclopentyl]amino}-2H-pyrazolo[3,4-d][1,3]thiazol-2-yl)-3,5-dimethylphenol (tR1)]	0.24	> 10	
Cc1cc(C)c(-n2cc3sc(N[C@@H]4CC[C@@H](O)C4)nc3n2)c(O)c1 [Example 45, 2-(5-{[(1R,3R)-3-hydroxycyclopentyl]amino}-2H-pyrazolo[3,4-d][1,3]thiazol-2-yl)-3,5-dimethylphenol or 2-(5-{[(1S,3S)-3-hydroxycyclopentyl]amino}-2H-pyrazolo[3,4-d][1,3]thiazol-2-yl)-3,5-dimethylphenol (tR2)]	0.33		> 10
Cc1cc(C)c(-n2cc3sc(N[C@@H]4CC[C@H](O)C4)nc3n2)c(O)c1 [Example 46, 2-(5-{[(1R,3S)-3-hydroxycyclopentyl]amino}-2H-pyrazolo[3,4-d][1,3]thiazol-2-yl)-3,5-dimethylphenol or 2-(5-{[(1S,3R)-3-hydroxycyclopentyl]amino}-2H-pyrazolo[3,4-d][1,3]thiazol-2-yl)-3,5-dimethylphenyl (tR1)]	0.33	> 10	
Cc1cc(C)c(-n2cc3sc(N[C@@H]4CC[C@H](O)C4)nc3n2)c(O)c1 [Example 47, 2-(5-{[(1R,3S)-3-hydroxycyclopentyl]amino}-2H-pyrazolo[3,4-d][1,3]thiazol-2-yl)-3,5-dimethylphenol or 2-(5-{[(1S,3R)-3-hydroxycyclopentyl]amino}-2H-pyrazolo[3,4-d][1,3]thiazol-2-yl)-3,5-dimethylphenol (tR2)]	1.2		> 10
COc1cc(C)cc(O)c1-n1cc2sc(N[C@@H]3C[C@@H](F)CN(C)C3)nc2n1 [Example 48, 2-(5-{[(3R,5R)-5-fluoro-1-methylpiperidin-3-yl]amino}-2H-pyrazolo[3,4-d][1,3]thiazol-2-yl)-3-methoxy-5-methylphenol]	0.13	> 10	
Cc1cc(C)c(-n2cc3sc(N(C)C)nc3n2)c(O)c1 [Example 49, 2-[5-(dimethylamino)-2H-pyrazolo[3,4-d][1,3]thiazol-2-yl]-3,5-dimethylphenol]	1.3	> 30	
Cc1cc(O)c(-n2cc3sc(N[C@@H]4C[C@@H](F)CN(C)C4)nc3n2)c(OC(F)F)c1 [Example 50, 3-(difluoromethoxy)-2-(5-{[(3R,5R)-5-fluoro-1-methylpiperidin-3-yl]amino}-2H-pyrazolo[3,4-d][1,3]thiazol-2-yl)-5-methylphenol]	0.012	> 30	
CCN1C[C@H](F)C[C@@H](Nc2nc3nn(-c4c(O)cc(C)cc4OC(F)F)cc3s2)C1 [Example 51, 3-(difluoromethoxy)-2-(5-{[(3R,5R)-1-ethyl-5-fluoropiperidin-3-yl]amino}-2H-pyrazolo[3,4-d][1,3]thiazol-2-yl)-5-methylphenol]	0.0028	> 30	
COCCN(c1nc2nn(-c3c(C)cc(C)cc3O)cc2s1)[C@@H]1CCCN(C)C1 [Example 52, 2-(5-{(2-methoxyethyl)[(3R)-1-methylpiperidin-3-yl]amino}-2H-pyrazolo[3,4-d][1,3]thiazol-2-yl)-3,5-dimethylphenol]	0.2	> 10	
Cc1cc(C)c(-n2cc3sc(NCCN(C)C)nc3n2)c(O)c1 [Example 53, 2-(5-{[2-(dimethylamino)ethyl]amino}-2H-pyrazolo[3,4-d][1,3]thiazol-2-yl)-3,5-dimethylphenol]	0.68	> 30	
Cc1cc(C)c(-n2cc3sc(NCCN4CCOCC4)nc3n2)c(O)c1 [Example 54, 3,5-dimethyl-2-(5-{[2-(morpholin-4-yl)ethyl]amino}-2H-pyrazolo[3,4-d][1,3]thiazol-2-yl)phenol]	1.1	> 30	
Cc1cc(C)c(-n2cc3sc(NCCC(C)(C)O)nc3n2)c(O)c1 [Example 55, 2-{5-[(3-hydroxy-3-methylbutyl)amino]-2H-pyrazolo[3,4-d][1,3]thiazol-2-yl}-3,5-dimethylphenol]	1.4	> 10	
CC(=O)NCCCNc1nc2nn(-c3c(C)cc(C)cc3O)cc2s1 [Example 56, N-(3-{[2-(2-hydroxy-4,6-dimethylphenyl)-2H-pyrazolo[3,4-d][1,3]thiazol-5-yl]amino}propyl) acetamide]	0.23	> 30	
Cc1cc(C)c(-n2cc3sc(NC45CCC(O)(CC4)C5)nc3n2)c(O)c1 [Example 57, 4-{[2-(2-hydroxy-4,6-dimethylphenyl)-2H-pyrazolo[3,4-d][1,3]thiazol-5-yl]amino}bicyclo[2.2.1]heptan-1-ol]	0.13	> 10	
Cc1cnc(-n2nc3nc(N[C@@H]4CCCN(C)C4)sc3c2C)c(O)c1 [Example 58, 5-methyl-2-(3-methyl-5-{[(3R)-1-methylpiperidin-3-yl]amino}-2H-pyrazolo[3,4-d][1,3]thiazol-2-yl)pyridin-3-ol]	2.6	> 30	
CCc1cc(O)c(-n2cc3sc(N[C@@H]4C[C@@H](F)CN(C)C4)nc3n2)c(CC)c1 [Example 59, 3,5-diethyl-2-(5-{[(3R,5R)-5-fluoro-1-methylpiperidin-3-yl]amino}-2H-pyrazolo[3,4-d][1,3]thiazol-2-yl)phenol]	0.023	> 30	
CCc1cc(C)c(-n2cc3sc(N[C@@H]4C[C@@H](F)CN(C)C4)nc3n2)c(O)c1 [Example 60, 5-ethyl-2-(5-{[(3R,5R)-5-fluoro-1-methylpiperidin-3-yl]amino}-2H-pyrazolo[3,4-d][1,3]thiazol-2-yl)-3-methylphenol]	0.061	> 30	
COCCN(C)c1nc2nn(-c3c(C)cc(C)cc3O)cc2s1 [Example 61, 2-{5-[(2-methoxyethyl)(methyl)amino]-2H-pyrazolo[3,4-d][1,3]thiazol-2-yl}-3,5-dimethylphenol]	2	> 10	
Cc1cc(C)c(-n2cc3sc(N[C@H]4CNC[C@H](F)C4)nc3n2)c(O)c1 [Example 62, 2-(5-{[(3R,5R)-5-fluoropiperidin-3-yl]amino}-2H-pyrazolo[3,4-d][1,3]thiazol-2-yl)-3,5-dimethylphenol]	0.12	> 10	
Cc1cnc(-n2cc3sc(N[C@@H]4CCCN(C)C4)nc3n2)c(O)c1 [Example 63, 5-methyl-2-(5-{[(3R)-1-methylpiperidin-3-yl]amino}-2H-pyrazolo[3,4-d][1,3]thiazol-2-yl)pyridin-3-ol]	3.4	> 10	
Cc1cc(O)c(-n2cc3sc(NC[C@@H](C)O)nc3n2)c(C2CC2)c1 [Example 64, 3-cyclopropyl-2-(5-{[(2R)-2-hydroxypropyl]amino}-2H-pyrazolo[3,4-d][1,3]thiazol-2-yl)-5-methylphenol]	0.078	> 10	
Cc1cc(O)c(-n2cc3sc(N[C@@H]4C[C@@H](F)CN(C)C4)nc3n2)c(C2CC2)c1 [Example 65, 3-cyclopropyl-2-(5-{[(3R,5R)-5-fluoro-1-methylpiperidin-3-yl]amino}-2H-pyrazolo[3,4-d][1,3]thiazol-2-yl)-5-methylphenol]	0.0083	> 30	
Cc1cc(C)c(-n2cc3sc(NCC(C)(C)O)nc3n2)c(O)c1 [Example 66, 2-{5-[(2-hydroxy-2-methylpropyl)amino]-2H-pyrazolo[3,4-d][1,3]thiazol-2-yl}-3,5-dimethylphenol]	0.25	> 30	
